Reference: US10139420B2, “Methods for treating vaso-occlusive crisis using non-modified annexin V” (ISNERM (Institut National de la Sante et de la Recherche …, priority 2011, dated 2018)
“Also recorded” adds a separate entry of the source.

Assays:
[1] = tested on: SAD mice; assay: Circulating PS+ MP in platelet-free plasma by FACS (annexin-V labeling), SAD mice; format: in vivo, mouse; settings: injected to mice, compared with whole TSP1
Experimental: We characterized the induction of VOC in SAD transgenic mice (18, 19) according to our previously published method, in response to the intravenous administration of TSP1 (1 mg/kg), TSP1-derived peptides 4N1-1 or 4N1-2, or purified erythrocyte MP. Briefly, mice were anesthetized with isoflurane and monitored to prevent any cardiorespiratory depression. Mice were shaved and placed in the decubitus position on a heating blanket (38° C.). We used a Vivid 7 echograph (GE Medical Systems®, Horten, Norway) equipped with a 12-MHz linear transducer (12 L). […] A pulsed Doppler spectrum was recorded and peak systolic, end-diastolic and time-average mean BFV were measured in the renal artery, with Doppler beam angle correction. To calculate cardiac output, spatial flow profiles were analyzed in parasternal long-axis B-mode images of the pulmonary artery and BFV were measured as above. […] Circulating MP were quantified by FACS.
Netherlands) in the absence or presence of TSP1 (25 μg/ml), or TSP1-derived peptides 4N1-1 or 4N1-2 (25 μM). […] Erythrocytes were immediately separated and supernatant PS^+ MP quantified by FACS. […] MP concentrations were determined as previously described (20). […] MP were analyzed on a Coulter EPICS XL flow cytometer (Beckman Coulter). […] MP-size events were analyzed in FL/FSC fluorescence dot plots to determine annexin-V labeling. […]

[2] = tested on: wild type mouse erythrocytes; assay: Echinocyte conversion and MP shedding by isolated erythrocytes (LORCA ektacytometer, microscopy, FACS), wild type; format: cell-based; settings: for increase in MP shedding in wild type erythrocytes: peptides 25 μM, versus control peptides
Experimental: (§1) Mouse blood was obtained through retro-orbital sinus puncture, mixed with anti-coagulant heparin buffer (5 UI/ml), and collected on citrated tubes. Blood diluted 1:1 with PBS (Gibco-Life Sciences) was placed onto histopaque-1083 (Sigma) density gradients for centrifugation (600 g, 25 minutes). Erythrocyte pellets were resuspended, washed in DMEM and stored for up to 4 hours at room temperature. Erythrocyte surface CD47 expression was assessed by FACS. Fresh RBC were washed and blocked with PBS-BSA 5% for 30 min and immunoreacted with mouse-specific fluoroisothiocyanate (FITC)-coupled anti-CD47 monoclonal antibody (clone mIAP301; BD Biosciences, Le Pont de Claix, France), or matched irrelevant IgG2aκ isotype for 45 min in 2% PBS-BSA. Erythrocytes were washed in PBS-BSA 2% prior to FACS analysis. Erythrocyte phenotypes were analyzed by […] electronic microscopy. Briefly, mouse erythrocytes were fixed with glutaraldehyde 1% and paraformaldehyde 4%, dehydrated and embedded in Epon™ epoxy resin. Sections contrasted with uranyl acetate and lead citrate were examined with a JEOL JEM 1010 microscope. Average apparent spicule number was determined by direct counting in 80 to 120 cells per condition.
(§2) To trigger MP shedding, erythrocyte were suspended in polyvinylpyrrolidone (31 mPa.s) and placed in a rotating type LORCA ektacytometer (R&R Mechatronics, Hoorn, The
(§3) Netherlands) in the absence or presence of TSP1 (25 μg/ml), or TSP1-derived peptides 4N1-1 or 4N1-2 (25 μM). Shear rate was applied according to the builder's program (1500 s^−1; 2.5 minutes). Erythrocytes were immediately separated and supernatant PS^+ MP quantified by FACS. Concentrated MP stocks were generated from 10 to 20 ml of supernatant from erythrocytes suspended in RPMI-1640 (4.10^6/ml) and treated with 4N1-1. Suspensions were centrifuged at 400 g for 15 min to discard cells, and ultracentrifuged at 20500 g for 45 min to pellet MP, which were resuspended in filtered (0.2 μm) DMEM and stored at −80° C. MP concentrations were determined as previously described (20). Briefly, MP were labeled with 2 μl FITC-conjugated annexin-V (Roche Diagnostics, France) diluted in 100 μl reaction buffer with 5 mM CaCl2. CaCl2 was omitted in negative controls. MP were analyzed on a Coulter EPICS XL flow cytometer (Beckman Coulter). MP were identified in forward light scatter (FSc) and side-angle light scatter (SSc) intensity dot plots set at logarithmic gain, as events of 0.1-1 μm in diameter. MP-size events were analyzed in FL/FSC fluorescence dot plots to determine annexin-V labeling. MP concentration was determined with respect to calibrated fluorescent microbeads (Flowcount). To determine erythrocyte origin, MP were double labeled with rat PE-Cy7-coupled mouse-specific anti-Ter119 antibody (Biolegend via Ozyme, France), or matched irrelevant IgG2bκ isotype.

[3] = tested on: SAD mouse erythrocytes; assay: Echinocyte conversion and MP shedding by isolated erythrocytes (LORCA ektacytometer, microscopy, FACS), SAD; format: cell-based; settings: for raise in MP shedding in SAD erythrocytes: peptides 25 μM, versus control peptides
Experimental: as §1, §2, §3

[4] = tested on: SV40-transformed mouse lymph node endothelial cells (SVEC4-10); assay: Endothelial ROS production (H2DFF-DA assay); format: cell-based
Experimental: SV40-transformed mouse lymph node endothelial cells (SVEC4-10 from ATCC) were obtained from LGC Promochem, France and grown in Dulbecco's Modified Eagle Medium (DMEM) supplemented with 20% neonatal calf serum (NCS; Dominique Dutscher) in 24 well plaques at 37° C. with 5% CO2. Confluent SVEC monolayers in 96 well plates were incubated with 25 MP/μl for up to 2 h. To determine ROS production, 5-(6-)Carboxy-2′,7′-difluorodihydrofluorescein diacetate (H2DFF-DA; 10 μM), was supplemented to the medium for the last 30 minutes, and fluorescence was read in an automated fluorescence plate reader. For erythrocyte adhesion experiments, MP-primed SVEC monolayers were washed and incubated with RBC suspensions in DMEM (1.10^6 RBC/ml). Supernatant cells were discarded after 30 min, and adherent cells were counted by phase contrast microscopy in 5 random fields per well (400×). All conditions were tested 3 to 6 times, in triplicates. In cell cycle analysis, SVEC were cultured up to 70% confluency, washed and placed in DMEM with 0.05% NCS with or without RBC MP. After 16 hours, SVEC were trypsinized, fixed overnight in ice-cold 70% ethanol-H20, and incubated in 0.05% Triton X100, 100 μg/ml RNase A plus 50 μg/ml propidium iodide for 1 h in the dark. Total DNA content was determined by FACS. DNA profiles were divided as sub-G1 (apoptosis), G0/G1 (resting) and G2/M (proliferation) phases of the cell cycle. Data shown is the mean percentage of cells in each phase, in 3 to 6 independent experiments.

[5] = tested on: Mesenteric arteries; assay: Microvascular dilation of perfused mesenteric resistance arteries (pressure myograph); set-up: species or system mouse
Experimental: Mesenteric arteries were removed from terminally anesthetized mice and placed them in ice-cold physiological salt solution (PSS). 4-6 arterial segments from each mouse were used. A segment of mesenteric artery was cannulated and mounted in a video-monitored perfusion system as described (21). Arterial segments were bathed in a 5 ml organ bath containing a PSS maintained at pH 7.4, with pO2 and pCO2 of 160 mm Hg and 37 mm Hg, respectively. Arterial diameter was continuously recorded by video (Living System Instrumentation Inc., Burlington, Vt.). Pressure and flow rates could be changed independently. Diameter changes were measured in each segment when the intraluminal pressure was set at 75 mm Hg in order to measure dilation. Artery viability was tested with potassium-rich solution ([…]; PSS). The endothelium was considered functional when 80% relaxation was obtained with 10^−6 acetylcholine (ACH), after phenylephrine (PE)-induced preconstriction (50% of maximal contraction with KCl 80 mM). A cumulative concentration-response curve to ACH (10^−7-10^−4 M) was constructed after preconstriction. Sodium nitroprusside (SNP, 100 μM) was tested after the ACH curve. Intraluminal flow was then increased to 21 μl/minute and MP were injected in the vessel. A new cumulative concentration-response curve to ACH after was constructed after new PE-induced preconstriction. […]

[6] = tested on: SAD transgenic mice; assay: Vaso-occlusive crises in mice: renal artery blood flow velocity by Echo-Doppler, cardiac output, renal histology; format: in vivo, mouse; settings: SAD RBC MP pre-incubated with annexin-V and washed, 300.10^3 MP/mouse
Experimental: We characterized the induction of VOC in SAD transgenic mice (18, 19) according to our previously published method, in response to the intravenous administration of TSP1 (1 mg/kg), TSP1-derived peptides 4N1-1 or 4N1-2, or purified erythrocyte MP. Briefly, mice were anesthetized with isoflurane and monitored to prevent any cardiorespiratory depression. Mice were shaved and placed in the decubitus position on a heating blanket (38° C.). We used a Vivid 7 echograph (GE Medical Systems®, Horten, Norway) equipped with a 12-MHz linear transducer (12 L). The ultrasound probe was placed on the left side of the abdomen for examination of renal arteries, or in left lateral decubitus for cardiac output acquisition with transducer on the chest. Data were transferred on-line to an EchoPAC ultrasound image analysis workstation (GE Medical Systems®). Two-Dimensional ultrasound imaging of the abdomen in left-sided longitudinal B-mode allowed kidney width and height measurements. Color-coded blood flow detection by Doppler enabled renal arteries to be localized. A pulsed Doppler spectrum was recorded and peak systolic, end-diastolic and time-average mean BFV were measured in the renal artery, with Doppler beam angle correction. To calculate cardiac output, spatial flow profiles were analyzed in parasternal long-axis B-mode images of the pulmonary artery and BFV were measured as above. The following formula was applied: CO=[(V^mean·60)·(π·(Dpa/2^2)], where CO is the cardiac output in ml/minute, V^mean is the mean time-averaged BFV in cm/s and Dpa is the pulmonary artery diameter in cm. Kidney sizes and BFV were determined by the same investigator, as means of 5 to 8 measurements. Repeatability for cardiac output measurements was verified. We controlled and confirmed that kidney size was similar between SAD and wild type mice. After sacrifice, kidneys were dissected, dehydrated, mounted in paraffin, sectioned and stained by Masson trichrome. Vascular congestion was observed by phase-contrast microscopy, as large erythrocyte aggregates occluding kidney capillaries and larger vessels. In some experiments, TSP1 (1 mg/kg) or control BSA (1 mg/kg) were injected. After 5 minutes, mice were terminally anesthetized by pentobarbital overdose. Whole blood was collected through cardiac puncture, centrifuged (400 g, 15 minutes) to eliminate erythrocytes and leukocytes, and double centrifuged (12500 g, 5 minutes) to eliminate platelets with minimal activation. Supernatants were considered platelet-free plasma (PFP). Circulating MP were quantified by FACS.
We evaluated the concept that TSP1 influences VOC during SCD in vivo. We used SAD transgenic mice that express a mutated human hemoglobin β-chain known to cause sickle cell formation and sensitivity to VOC (18, 19).

[7] = scanning electron microscopy, after peptide treatment
[8] = endothelial NOS blocked, L-NAME 100 μM, enantiomer D-NAME as control
[9] = endothelial PKC activity inhibited, 1 μM

## 4N1-1: Synthetic TSP1 carboxyterminal peptide RFYVVMWK (SEQ ID NO:1), CD47 agonist (4N1-1)
[1]
  effects on circulating PS+ MP after injection of the peptide: comparable to whole TSP1
[2]; peptide 25 μM
  echinocytosis: change in wild type echinocytes: doubling
[2]; [7]
  spicule numbers in healthy wild type erythrocytes: not in healthy wild type erythrocytes
[3]; SAD erythrocytes, TSP1 or peptide
  effect on sickle cells: did not affect sickle cells
[3]; [7]
  increase in spicule numbers in SAD RBC: 20%
[3]; under shear, TSP1 (25 μg/ml) or peptide (25 μM), vs control
  increase in SAD echinocytes: 50%

## 4N1-2: Synthetic truncated control peptide RFYVVM (SEQ ID NO:2) (4N1-2)
[2]
  increase in MP shedding in wild type erythrocytes: no effect
[3]
  raise in MP shedding in SAD erythrocytes: no effect

## 4NGG: Mutated control peptide RFYGGMWK (SEQ ID NO:3) devoid of the VVM motif (4NGG)
[2]
  increase in MP shedding in wild type erythrocytes: no effect
[3]
  raise in MP shedding in SAD erythrocytes: no effect

## COC(=O)[C@H](N)CCCN=C(N)N[N+](=O)[O-] [D-NAME]
[4]; [8]
  ROS generation induced by SAD RBC MP: had no effects

## c1ccc2c(c1)[I+]c1ccccc1-2 [DPI]
[4]; endothelial NADPH oxydase blocked, 10 μM, 30 minutes
  ROS generation induced by SAD RBC MP: prevented

## Cn1c2ccccc2c2c3c(c4c5ccccc5n(CCC#N)c4c21)C(=O)NC3 [Gö-6976]
[4]; [9]
  ROS generation induced by SAD RBC MP: prevented

## COC(=O)[C@@H](N)CCCNC(=N)N[N+](=O)[O-] [L-NAME]
[4]; [8]
  ROS generation induced by SAD RBC MP: entirely inhibited

## Cn1cc(C2=C(c3cn(CCCSC(=N)N)c4ccccc34)C(=O)NC2=O)c2ccccc21 [Ro-31-8220]
[4]; [9]
  ROS generation induced by SAD RBC MP: prevented

## CC1(C)CC(O)CC(C)(C)N1[O] [Tempol]
[5]; Tempol alone, vs control
  effect alone on vessel diameter: −5 % vessel diameter
[5]; vessel treated 10 μM, 30 minutes, vs MP alone
  reduction of the deleterious effects of SAD RBC MP on vasodilation: −50%

## COc1cc(C(C)=O)ccc1O [apocynin]
[4]; endothelial NADPH oxydase blocked, 100 μM, 30 minutes
  ROS generation induced by SAD RBC MP: prevented

B1: annexin-V: Recombinant protein that binds externalized phosphatidylserine in a calcium dependent manner (protein, UniProt P08758 2-320, looked up)
Annexin A5: AQVLRGTVTDFPGFDERADAETLRKAMKGLGTDEESILTLLTSRSNAQRQEISAAFKTLFGRDLLDDLKSELTGKFEKLIVALMKPSRLYDAYELKHALKGAGTNEKVLTEIIASRTPEELRAIKQVYEEEYGSSLEDDVVGDTSGYYQRMLVVLLQANRDPDAGIDEAQVEQDAQALFQAGELKWGTDEEKFITIFGTRSVSHLRKVFDKYMTISGFQIEETIDRETSGNLEQLLLAVVKSIRSIPAYLAETLYYAMKGAGTDDHTLIRVMVSRSEIDLFNIRKEFRKNFATSLYSMIKGDTSGDYKKALLLLCGEDD
[6]
  VOC parameters after injection of annexin-V-saturated SAD RBC MP: failed to modify VOC parameters
[6]; listed as Annexin-V
  VOC parameters after injection of annexin-V-saturated SAD RBC MP: abrogated the induction of VOC
[4]; MP PS previously saturated with recombinant annexin-V, 1 μg/ml for 1 hour
  ROS generation induced by SAD RBC MP: entirely inhibited; also recorded: prevented
